Results: patent US9133115B2 (ACHILLION PHARMACEUTICALS, INC., priority 2008, dated 2015)

Test system: HCV replicon
Test: HCV replicon replication assay (NPT ELISA) in Huh-7 replicon-containing cells
Type: cell-based
Conditions: Hepatitis C virus, 72 h; HCV replicon in Huh-7 cells, three days incubation; read-out: EC50
Procedure, shortened: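 Huh-7 cells carrying a bicistronic HCV replicon (HCV-IRES-neo, EMCV-IRES-driven NS3–NS5B, 3′-NTR) were seeded at 6000-7500 cells/well, grown 24 h to 60-70% confluence, then treated with graded compound concentrations. Replication was read as NPT level by capture ELISA (rabbit anti-NPTII, Eu-N1 secondary); interferon alpha served as positive control.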

In the case of `C=C[C@@H]1C[C@]1(NC(=O)[C@@H]1C[C@@H](Oc2cc(-c3ccccn3)nc3cc(OC)ccc23)CN1C(=O)[C@@H](CC(=O)N1CCC(F)(F)C1)C(C)(C)C)C(=O)NS(=O)(=O)C1CC1` [Compound 214, (2S,4R)-1-((S)-2-tert-butyl-4-(3,3-difluoropyrrolidin-1-yl)-4-oxobutanoyl)-N-((1R)-1-(cyclopropyl-sulfonylcarbamoyl)-2-vinylcyclopropyl)-4-(7-methoxy-2-(pyridin-2-yl)quinolin-4-yloxy)pyrrolidine-2-carboxamide], the EC50 is reported as less than 1 µM.
In the case of `C=C[C@@H]1C[C@]1(NC(=O)[C@@H]1C[C@@H](Oc2cc(-c3ccccn3)nc3cc(OC)ccc23)CN1C(=O)[C@@H](CC(=O)N1CCC(C(F)(F)F)CC1)C(C)(C)C)C(=O)NS(=O)(=O)C1CC1` [Compound 215, (2S,4R)-1-((S)-2-tert-butyl-4-oxo-4-(4-(trifluoro-methyl)piperidin-1-yl)butanoyl)-N-((1R)-1-(cyclopropyl-sulfonylcarbamoyl)-2-vinylcyclopropyl)-4-(7-methoxy-2-(pyridin-2-yl)quinolin-4-yloxy)pyrrolidine-2-carboxamide], the EC50 is reported as less than 1 µM.
`C=C[C@@H]1C[C@]1(NC(=O)[C@@H]1C[C@@H](Oc2cc(-c3ccccn3)nc3cc(OC)ccc23)CN1C(=O)[C@@H](CC(=O)N1CCC(F)(F)CC1)C(C)(C)C)C(=O)NS(=O)(=O)C1CC1` [Compound 216, (2S,4R)-1-((S)-2-tert-butyl-4-(4,4-difluoropiperidin-1-yl)-4-oxobutanoyl)-N-((1R)-1-(cyclo-propylsulfonyl-carbamoyl)-2-vinylcyclopropyl)-4-(7-methoxy-2-(pyridin-2-yl)quinolin-4-yloxy)pyrrolidine-2-carboxamide] was tested, and the EC50 was less than 1 µM.
In the case of `C=C[C@@H]1C[C@]1(NC(=O)[C@@H]1C[C@@H](Oc2cc(-c3ccccn3)nc3cc(OC)ccc23)CN1C(=O)[C@@H](CC(=O)N1CCCC(F)(F)C1)C(C)(C)C)C(=O)NS(=O)(=O)C1CC1` [Compound 217, (2S,4R)-1-((S)-2-tert-butyl-4-(3,3-difluoropiperidin-1-yl)-4-oxobutanoyl)-N-((1R)-1-(cyclopropyl-sulfonylcarbamoyl)-2-vinylcyclopropyl)-4-(7-methoxy-2-(pyridin-2-yl)quinolin-4-yloxy)pyrrolidine-2-carboxamide], the EC50 is reported as less than 1 µM.
For `C=C[C@@H]1C[C@]1(NC(=O)[C@@H]1C[C@@H](Oc2cc(-c3ccccn3)nc3cc(OC)ccc23)CN1C(=O)[C@@H](CC(=O)N1CCC(F)CC1)C(C)(C)C)C(=O)NS(=O)(=O)C1CC1` [Compound 218, (2S,4R)-1-((S)-2-tert-butyl-4-(4-fluoropiperidin-1-yl)-4-oxobutanoyl)-N-((1R)-1-(cyclo-propylsulfonyl-carbamoyl)-2-vinylcyclopropyl)-4-(7-methoxy-2-(pyridin-2-yl)quinolin-4-yloxy)pyrrolidine-2-carboxamide], the EC50 was less than 1 µM.
With `C=C[C@@H]1C[C@]1(NC(=O)[C@@H]1C[C@@H](Oc2cc(-c3ccccn3)nc3cc(OC)ccc23)CN1C(=O)[C@@H](CC(=O)N1CC2CCC1C2)C(C)(C)C)C(=O)NS(=O)(=O)C1CC1` (stereo partly drawn) [Compound 220, (2S,4R)-1-((2S)-2-(2-(2-azabi-cyclo[2.2.1]heptan-2-yl)-2-oxoethyl)-3,3-dimethylbutanoyl)-N-((1R)-1-(cyclo-propylsulfonyl-carbamoyl)-2-vinylcyclopropyl)-4-(7-methoxy-2-(pyridin-2-yl)quinolin-4-yloxy)pyrrolidine-2-carboxamide] the EC50 was less than 1 µM.
`C=C[C@@H]1C[C@]1(NC(=O)[C@@H]1C[C@@H](Oc2cc(-c3ccccn3)nc3cc(OC)ccc23)CN1C(=O)[C@@H](CC(=O)N1CC2CC3CC(C2)CC1C3)C(C)(C)C)C(=O)NS(=O)(=O)C1CC1` [Compound 221] showed an EC50 greater than 10 µM.
`C=C[C@@H]1C[C@]1(NC(=O)[C@@H]1C[C@@H](Oc2cc(-c3ccccc3)nc3cc(OC)ccc23)CN1C(=O)[C@@H](CC(=O)N1CCC1)C(C)(C)C)C(=O)NS(=O)(=O)C1CC1` [Compound 222, (2S,4R)-1-((S)-4-(azetidin-1-yl)-2-tert-butyl-4-oxobutanoyl)-N-((1R)-1-(cyclopropyl-sulfonylcarbamoyl)-2-vinylcyclopropyl)-4-(7-methoxy-2-phenylquinolin-4-yloxy)pyrrolidine-2-carboxamide] gave an EC50 of less than 1 µM.
For `C=C[C@@H]1C[C@]1(NC(=O)[C@@H]1C[C@@H](Oc2cc(-c3ccccc3)nc3cc(OC)ccc23)CN1C(=O)[C@@H](CC(=O)N1CC(F)(F)C1)C(C)(C)C)C(=O)NS(=O)(=O)C1CC1` [Compound 223, (2S,4R)-1-((S)-2-tert-butyl-4-(3,3-difluoroazetidin-1-yl)-4-oxobutanoyl)-N-((1R)-1-(cyclopropyl-sulfonylcarbamoyl)-2-vinylcyclopropyl)-4-(7-methoxy-2-phenylquinolin-4-yloxy)pyrrolidine-2-carboxamide], the EC50 was less than 1 µM.
Work on `C=C[C@@H]1C[C@]1(NC(=O)[C@@H]1C[C@@H](Oc2cc(-c3ccccc3)nc3cc(OC)ccc23)CN1C(=O)[C@@H](CC(=O)N1CC(Cl)C1)C(C)(C)C)C(=O)NS(=O)(=O)C1CC1` [Compound 224, (2S,4R)-1-((S)-2-tert-butyl-4-(3-chloroazetidin-1-yl)-4-oxobutanoyl)-N-((1R)-1-(cyclopropyl-sulfonylcarbamoyl)-2-vinylcyclopropyl)-4-(7-methoxy-2-phenylquinolin-4-yloxy)pyrrolidine-2-carboxamide] yielded an EC50 of less than 1 µM.
Work on `C=C[C@@H]1C[C@]1(NC(=O)[C@@H]1C[C@@H](Oc2cc(-c3ccccc3)nc3ccccc23)CN1C(=O)[C@@H](CC(=O)N1CCCCC1)C(C)(C)C)C(=O)NS(=O)(=O)C1CC1` [Compound 225, (2S,4R)-1-((S)-2-tert-butyl-4-oxo-4-(piperidin-1-yl)butanoyl)-N-((1R)-1-(cyclopropyl-sulfonylcarbamoyl)-2-vinylcyclopropyl)-4-(2-phenylquinolin-4-yloxy)pyrrolidine-2-carboxamide] yielded an EC50 of less than 1 µM.
`C=C[C@@H]1C[C@]1(NC(=O)[C@@H]1C[C@@H](Oc2cc(-c3ccccc3)nc3ccc(C)cc23)CN1C(=O)[C@@H](CC(=O)N1CCCCC1)C(C)(C)C)C(=O)NS(=O)(=O)C1CC1` [Compound 226, (2S,4R)-1-((S)-2-tert-butyl-4-oxo-4-(piperidin-1-yl)butanoyl)-N-((1R)-1-(cyclopropyl-sulfonylcarbamoyl)-2-vinylcyclopropyl)-4-(6-methyl-2-phenylquinolin-4-yloxy)pyrrolidine-2-carboxamide] showed an EC50 of less than 1 µM.
`C=C[C@@H]1C[C@]1(NC(=O)[C@@H]1C[C@@H](Oc2cc(-c3ccccc3)nc3cc(OC)ccc23)CN1C(=O)[C@@H](CC(=O)N1CCC1c1ccccc1)C(C)(C)C)C(=O)NS(=O)(=O)C1CC1` (stereo partly drawn) [Compound 227, (2S,4R)-1-((2S)-2-tert-butyl-4-oxo-4-(2-phenylazetidin-1-yl)butanoyl)-N-((1R)-1-(cyclopropyl-sulfonylcarbamoyl)-2-vinylcyclopropyl)-4-(7-methoxy-2-phenylquinolin-4-yloxy)pyrrolidine-2-carboxamide] was tested, and the EC50 was less than 1 µM.
Compound `C=C[C@@H]1C[C@]1(NC(=O)[C@@H]1C[C@@H](Oc2cc(-c3ccccc3)nc3cc(OC)ccc23)CN1C(=O)[C@@H](CC(=O)N1CCC1c1cccc(OC)c1)C(C)(C)C)C(=O)NS(=O)(=O)C1CC1` (stereo partly drawn) [Compound 228, (2S,4R)-1-((2S)-2-tert-butyl-4-(2-(3-methoxyphenyl)aze-tidin-1-yl)-4-oxobutanoyl)-N-((1R)-1-(cyclopropyl-sulfonylcarbamoyl)-2-vinylcyclopropyl)-4-(7-methoxy-2-phenylquinolin-4-yloxy)pyrrolidine-2-carboxamide] has an EC50 of less than 1 µM.
`C=C[C@@H]1C[C@]1(NC(=O)[C@@H]1C[C@@H](Oc2cc(-c3ccccc3)nc3ccc(OC)cc23)CN1C(=O)[C@@H](CC(=O)N1CCCCC1)C(C)(C)C)C(=O)NS(=O)(=O)C1CC1` [Compound 229, (2S,4R)-1-((S)-2-tert-butyl-4-oxo-4-(piperidin-1-yl)butanoyl)-N-((1R)-1-(cyclopropyl-sulfonylcarbamoyl)-2-vinylcyclopropyl)-4-(6-methoxy-2-phenylquinolin-4-yloxy)pyrrolidine-2-carboxamide] showed an EC50 of less than 1 µM.
Work on `C=C[C@@H]1C[C@]1(NC(=O)[C@@H]1C[C@@H](Oc2cc(-c3nc(C(C)C)cs3)nc3cc(OC)ccc23)CN1C(=O)[C@@H](CC(=O)N1CCCCC1)C(C)(C)C)C(=O)NS(=O)(=O)C1CC1` [Compound 230, (2S,4R)-1-((S)-2-tert-butyl-4-oxo-4-(piperidin-1-yl)butanoyl)-N-((1R)-1-(cyclopropyl-sulfonylcarbamoyl)-2-vinylcyclopropyl)-4-(2-(4-isopropylthiazol-2-yl)-7-methoxyquinolin-4-yloxy)pyrrolidine-2-carboxamide] yielded an EC50 of less than 1 µM.
`C=C[C@@H]1C[C@]1(NC(=O)[C@@H]1C[C@@H](Oc2cc(-c3ccccc3)nc3c(OC)cccc23)CN1C(=O)[C@@H](CC(=O)N1CCCCC1)C(C)(C)C)C(=O)NS(=O)(=O)C1CC1` [Compound 231, (2S,4R)-1-((S)-2-tert-butyl-4-oxo-4-(piperidin-1-yl)butanoyl)-N-((2S)-1-(cyclopropyl-sulfonylcarbamoyl)-2-vinylcyclopropyl)-4-(8-methoxy-2-phenylquinolin-4-yloxy)pyrrolidine-2-carboxamide] was tested, and the EC50 was less than 1 µM.
In the case of `C=C[C@@H]1C[C@]1(NC(=O)[C@@H]1C[C@@H](Oc2cc(-c3ccccc3)nc3cc(OC)ccc23)CN1C(=O)[C@@H](CC(=O)N1CCCCC1c1cc(-c2ccccc2)[nH]n1)C(C)(C)C)C(=O)NS(=O)(=O)C1CC1` (stereo partly drawn) [Compound 232, (2S,4R)-1-((2S)-2-tert-butyl-4-oxo-4-(2-(5-phenyl-1H-pyrazol-3-yl)piperidin-1-yl)butanoyl)-N-((2S)-1-(cyclopropyl-sulfonylcarbamoyl)-2-vinylcyclopropyl)-4-(7-methoxy-2-phenylquinolin-4-yloxy)pyrrolidine-2-carboxamide], the EC50 is reported as less than 1 µM.
